Test results taken from patent US20250230193A1, “CYCLIC COMPOUND HAVING SELECTIVE KRAS INHIBITORY EFFECT ON HRAS AND NRAS” (CHUGAI SEIYAKU KABUSHIKI KAISHA, priority 2022, published 2025).
Where a SMILES comes first, the peptide text is derived from it. Bridges are numbered along the chain shown (N, C = ends). [ ]: non-standard residue; d: D form. The star is where a group is joined. hPhe(3-Cl-4-CF3) = N[C@@H](CCc1ccc(C(F)(F)F)c(Cl)c1)C(=O)O; NPrPhe(4-CF3) = CCCN[C@@H](Cc1ccc(C(F)(F)F)cc1)C(=O)O; NMeGly(cPent) = CN[C@H](C(=O)O)C1CCCC1; Pro(4,4-F2) = O=C(O)[C@@H]1CC(F)(F)CN1; Hyp = O=C(O)[C@@H]1C[C@@H](O)CN1; NMeD = CN[C@@H](CC(=O)O)C(=O)O; NMeL = CN[C@@H](CC(C)C)C(=O)O; Morpholide = C1CN(*)CCO1; NMeA = CN[C@@H](C)C(=O)O; Ac5c = NC1(C(=O)O)CCCC1; Aze = O=C(O)[C@@H]1CCN1; Ac4c = NC1(C(=O)O)CCC1; Sar = CNCC(=O)O

Experiments:
[1] = molecular target: GDP-bound HRAS wild-type protein (Homo sapiens, UniProt P01112); experiment: Binding to HRAS by surface plasmon resonance (SPR), Single Cycle Kinetics; conditions: for HRAS/KRAS (ratio of KD value with respect to HRAS to KD value with respect to KRAS) / HRAS/KRAS (ratio of KD value for HRAS to KD value for KRAS): GDP-bound HRAS wild-type vs GDP-bound KRAS wild-type
[2] = molecular target: GDP-bound NRAS wild-type protein (Homo sapiens, UniProt P01111); experiment: Binding to NRAS by surface plasmon resonance (SPR), Single Cycle Kinetics; conditions: for NRAS/KRAS (ratio of KD value with respect to NRAS to KD value with respect to KRAS) / NRAS/KRAS (ratio of KD value for NRAS to KD value for KRAS): GDP-bound NRAS wild-type vs GDP-bound KRAS wild-type
GDP-bound NRAS wild-type protein, sequence (P01111 whole entry): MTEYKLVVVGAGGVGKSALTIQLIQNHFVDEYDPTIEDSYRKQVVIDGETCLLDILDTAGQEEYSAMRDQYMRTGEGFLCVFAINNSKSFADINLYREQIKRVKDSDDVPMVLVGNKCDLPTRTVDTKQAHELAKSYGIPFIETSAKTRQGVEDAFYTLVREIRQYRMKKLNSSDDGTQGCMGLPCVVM

GDP-bound HRAS wild-type protein, sequence (P01112 whole entry): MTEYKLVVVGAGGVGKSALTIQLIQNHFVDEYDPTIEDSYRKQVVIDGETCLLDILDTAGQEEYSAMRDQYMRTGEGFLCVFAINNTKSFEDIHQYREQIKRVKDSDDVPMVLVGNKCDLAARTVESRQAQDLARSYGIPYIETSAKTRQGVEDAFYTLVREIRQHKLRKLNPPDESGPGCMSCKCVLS

For CCCN1C(=O)[C@@H]2CCN2C(=O)[C@H](C)N(C)C(=O)[C@H]([C@@H](C)CC)NC(=O)[C@H](CC(C)C)N(C)C(=O)C[C@@H](C(=O)N2CCOCC2)N(C)C(=O)[C@H](C2CCCC2)N(C)C(=O)C2(CCCC2)NC(=O)[C@@H]2CC(F)(F)CN2C(=O)[C@H](CCc2ccc(C(F)(F)F)c(Cl)c2)NC(=O)CN(C)C(=O)[C@@H]1Cc1ccc(C(F)(F)F)cc1 [PP0196] ([NMeL]I[NMeA][Aze][NPrPhe(4-CF3)][Sar][hPhe(3-Cl-4-CF3)][Pro(4,4-F2)][Ac5c][NMeGly(cPent)][NMeD]-Morpholide; lactam N-11), which “HRAS/KRAS (ratio of KD for GDP-bound HRAS wild-type to KD for KRAS)” value ([1]; KD ratio HRAS/KRAS, SPR) is on record?
The value was “C (A compound having a KD ratio of 0.1 or more and less than 3 is denoted as C)”.

And the “NRAS/KRAS (ratio of KD for GDP-bound NRAS wild-type to KD for KRAS)” value ([2]; KD ratio NRAS/KRAS, SPR)?
The value was “C (A compound having a KD ratio of 0.1 or more and less than 3 is denoted as C)”.

What does the source list for CCCN1C(=O)CN(C)C(=O)CN(C)C(=O)[C@H]([C@@H](C)CC)NC(=O)[C@H](CC(C)C)N(C)C(=O)C[C@@H](C(=O)N(C)C)N(C)C(=O)[C@H](C2CCCC2)N(C)C(=O)C2(CCC2)NC(=O)[C@@H]2C[C@@H](OCC)CN2C(=O)[C@H](CCc2ccc(C(F)(F)F)c(Cl)c2)NC(=O)CN(C)C(=O)[C@@H]1Cc1ccc(C(F)(F)F)cc1 [PP0416] ([NMeL]I[Sar][Sar][NPrPhe(4-CF3)][Sar][hPhe(3-Cl-4-CF3)][Hyp](Et)[Ac4c][NMeGly(cPent)][NMeD]-NMe2; lactam N-11)?
HRAS/KRAS (ratio of KD value with respect to GDP-bound HRAS wild-type protein to KD value with respect to KRAS) ([1]; KD ratio HRAS/KRAS, SPR): C (A compound having a KD ratio of 0.1 or more and less than 3 is denoted as C); NRAS/KRAS (ratio of KD value with respect to GDP-bound NRAS wild-type protein to KD value with respect to KRAS) ([2]; KD ratio NRAS/KRAS, SPR): B (a compound having 3 or more and less than 10 is denoted as B)

With CCC[C@H]1C(=O)N[C@@H]([C@@H](C)CC)C(=O)N(C)CC(=O)N(C)[C@H]2C/C=C\CCN(C2=O)[C@@H](Cc2ccc(C)cc2)C(=O)N(C)CC(=O)N[C@@H](CCc2cc(F)c(C(F)(F)F)c(F)c2)C(=O)N2C[C@H](OCC)C[C@H]2C(=O)N(C)C2(CCC2)C(=O)N(C)[C@@H](C2CCCC2)C(=O)N(C)[C@H](C(=O)N2CCCCC2)CC(=O)N1C [PP3119, (2S,8S,12R,14S,20S,23S,27S,30S,36S,38Z)-20-cyclopentyl-8-[2-[3,5-difluoro-4-(trifluoromethyl)phenyl]ethyl]-12-ethoxy-4,16,19,22,26,32,35-heptamethyl-30-[(1S)-1-methylpropyl]-23-(piperidine-1-carbonyl)-27-propyl-2-(p-tolylmethyl)spiro[1,4,7,10,16,19,22,26,29,32,35-undecazatricyclo[34.5.1.0^10,14]dotetracont-38-ene-17,1′-cyclobutane]-3,6,9,15,18,21,25,28,31,34,42-undecone] as the compound, how does the “HRAS/KRAS (ratio of KD value with respect to GDP-bound HRAS wild-type protein to KD value with respect to KRAS)” value ([1]; KD ratio HRAS/KRAS, SPR, GDP-bound wild-type proteins) read?
Its value is “A (a compound having 10 or more and less than 20 is denoted as A)”.

What about the “NRAS/KRAS (ratio of KD value with respect to GDP-bound NRAS wild-type protein to KD value with respect to KRAS)” value ([2]; KD ratio NRAS/KRAS, SPR, GDP-bound wild-type proteins) of the same compound?
Its value is “A (a compound having 10 or more and less than 20 is denoted as A)”.

How did the “HRAS/KRAS (ratio of KD value with respect to HRAS to KD value with respect to KRAS)” value ([1]; KD ratio, SPR) turn out when CCO[C@@H]1C[C@H]2C(=O)NC3(CCC3)C(=O)N(C)[C@@H](C3CCCC3)C(=O)N(C)[C@H](C(=O)N(C)C)CC(=O)N(C)[C@@H](CC)C(=O)N[C@@H]([C@@H](C)CC)C(=O)N(C)[C@@H](C)C(=O)N(C)[C@H]3C/C=C\CCN(C3=O)[C@@H](Cc3ccc(C(F)(F)F)cc3)C(=O)N(C)CC(=O)N[C@@H](CCc3cc(F)c(C(F)(F)F)c(F)c3)C(=O)N2C1 [PP1054] was run?
Its value is “B (a compound having 3 or more and less than 10 is denoted as B)”.

And the “NRAS/KRAS (ratio of KD value with respect to NRAS to KD value with respect to KRAS)” value ([2]; KD ratio, SPR)?
Its value is “A (a compound having 10 or more and less than 20 is denoted as A)”.

Which results are given for CCO[C@@H]1C[C@H]2C(=O)NC3(CC(C)(C)C3)C(=O)N(C)[C@@H](C(CC)CC)C(=O)N(C)[C@H](C(=O)N3CCCC3)CC(=O)N(C)[C@@H](C)C(=O)N[C@@H]([C@@H](C)CC)C(=O)N(C)CC(=O)N(C)[C@H]3C/C=C\CCN(C3=O)[C@@H](Cc3ccc(C(F)(F)F)cc3)C(=O)N(C)CC(=O)N[C@@H](CCc3ccc(Cl)c(Cl)c3)C(=O)N2C1 [PP2178]?
HRAS/KRAS (ratio of KD value with respect to HRAS to KD value with respect to KRAS) ([1]; SPR): A (a compound having 10 or more and less than 20 is denoted as A); NRAS/KRAS (ratio of KD value with respect to NRAS to KD value with respect to KRAS) ([2]; SPR): AA (a compound having 20 or more is denoted as AA)

For CCO[C@@H]1C[C@H]2C(=O)NC3(CC(C)(C)C3)C(=O)N(C)[C@@H](C3CCCC3)C(=O)N(C)[C@H](C(=O)N(C)CC)CC(=O)N(C)[C@H]3CC/C=C/c4ccc(cc4)C[C@@H](C(=O)N(C)CC(=O)N[C@@H](CCc4ccc(Cl)c(Cl)c4)C(=O)N2C1)N1CC/C=C\C[C@@H](C1=O)N(C)C(=O)CN(C1CC1)C(=O)[C@H]([C@@H](C)CC)NC3=O [PP2598], which “HRAS/KRAS (ratio of KD value with respect to GDP-bound HRAS wild-type protein to KD value with respect to KRAS)” value ([1]; KD ratio HRAS/KRAS, class symbols) is on record?
Its value is “A (a compound having 10 or more and less than 20 is denoted as A)”.

And the “NRAS/KRAS (ratio of KD value with respect to GDP-bound NRAS wild-type protein to KD value with respect to KRAS)” value ([2]; KD ratio NRAS/KRAS, class symbols)?
The value was “A (a compound having 10 or more and less than 20 is denoted as A)”.

What does the source list for CCCOC[C@H]1C(=O)N[C@@H]([C@@H](C)OCC)C(=O)N2CCC[C@H]2C(=O)N(C)[C@H]2C/C=C\CCN(C2=O)[C@@H](Cc2ccc(C)cc2)C(=O)N(C)CC(=O)N[C@@H](CCc2cc(F)c(C(F)(F)F)c(F)c2)C(=O)N2C[C@H](OCC)C[C@H]2C(=O)NC2(CC(C)(C)C2)C(=O)N(C)[C@@H](C2CCCC2)C(=O)N(C)[C@H](C(=O)N(C)CC)CC(=O)N1C [PP2432]?
HRAS/KRAS (ratio of KD value with respect to HRAS to KD value with respect to KRAS) ([1]; SPR): A (a compound having 10 or more and less than 20 is denoted as A); NRAS/KRAS (ratio of KD value with respect to NRAS to KD value with respect to KRAS) ([2]; SPR): A (a compound having 10 or more and less than 20 is denoted as A)

CCCOC[C@H]1C(=O)N[C@@H]([C@@H](C)CC)C(=O)N(C)CC(=O)N(C)[C@H]2C/C=C\CCN(C2=O)[C@@H](Cc2ccc(C)cc2)C(=O)N(C)CC(=O)N[C@@H](CCc2cc(F)c(C(F)(F)F)c(F)c2)C(=O)N2C[C@@H](C)C[C@H]2C(=O)NC2(CC(C)(C)C2)C(=O)N(C)[C@@H](C2CCCC2)C(=O)N(C)[C@H](C(=O)N(C)CC)CC(=O)N1C [PP2471] was tested. Which “HRAS/KRAS (ratio of KD value with respect to HRAS to KD value with respect to KRAS)” value ([1]; SPR) did it give?
The value was “A (a compound having 10 or more and less than 20 is denoted as A)”.

And the “NRAS/KRAS (ratio of KD value with respect to NRAS to KD value with respect to KRAS)” value ([2]; SPR)?
The value was “A (a compound having 10 or more and less than 20 is denoted as A)”.

For CCCOC[C@H]1C(=O)N[C@@H]([C@@H](C)CC)C(=O)N(C)CC(=O)N(C)[C@H]2C/C=C\CCN(C2=O)[C@@H](Cc2ccc(C(F)(F)F)cc2)C(=O)N(C)CC(=O)N[C@@H](CCc2cc(F)c(C(F)(F)F)c(F)c2)C(=O)N2C[C@H](OCC)C[C@H]2C(=O)NC2(CC(C)(C)C2)C(=O)N(C)[C@@H](C2CCCC2)C(=O)N(C)[C@H](C(=O)N(C)CCC)CC(=O)N1C [PP1673], which “HRAS/KRAS (ratio of KD value for HRAS to KD value for KRAS)” value ([1]; KD ratio, SPR) is on record?
The value was “A (a compound having 10 or more and less than 20 is denoted as A)”.

And the “NRAS/KRAS (ratio of KD value for NRAS to KD value for KRAS)” value ([2]; KD ratio, SPR)?
Its value is “A (a compound having 10 or more and less than 20 is denoted as A)”.

CCO[C@@H]1C[C@H]2C(=O)NC3(CC(C)(C)C3)C(=O)N(C)[C@@H](C3CCCC3)C(=O)N(C)[C@H](C(=O)N(C)C)CC(=O)N(C)[C@@H](CC3CCC3)C(=O)N[C@@H]([C@@H](C)CC)C(=O)N(C)CC(=O)N(C)[C@H]3C/C=C\CCN(C3=O)[C@@H](Cc3ccc(C(F)(F)F)cc3)C(=O)N(C)CC(=O)N[C@@H](CCc3ccc(C(F)(F)F)c(Cl)c3)C(=O)N2C1 [PP1752] was tested. Which “HRAS/KRAS (ratio of KD value for HRAS to KD value for KRAS)” value ([1]; KD ratio, SPR) did it give?
The value was “A (a compound having 10 or more and less than 20 is denoted as A)”.

What about the “NRAS/KRAS (ratio of KD value for NRAS to KD value for KRAS)” value ([2]; KD ratio, SPR) of the same compound?
The value was “A (a compound having 10 or more and less than 20 is denoted as A)”.
